Experimental data from the NIST ThermoML archive (doi:10.1021/je200784y).

Conditions: Liquid, Ebulliometric method (Recirculating still)

CCOC(=O)OCC [diethyl carbonate]
Conditions	vapor or sublimation pressure [kPa]
354.68 K	22.56
357.44 K	25.03
359.95 K	27.54
362.26 K	29.99
364.46 K	32.51
366.57 K	35.05
368.45 K	37.52
370.28 K	40.03
372.04 K	42.49
373.73 K	45.05
375.26 K	47.47
376.81 K	50.04
378.22 K	52.46
379.67 K	55.03
381.03 K	57.56
382.32 K	59.95
383.6 K	62.52
384.81 K	64.97
385.98 K	67.44
387.13 K	70.02
388.28 K	72.51
389.32 K	74.96
390.35 K	77.43
391.39 K	79.97
392.45 K	82.52
393.34 K	84.84
394.36 K	87.52
395.23 K	89.81
396.21 K	92.53
397.03 K	94.89
397.96 K	97.54
398.81 K	100.03
399.27 K	101.38
